ChEMBL document CHEMBL1201861, “Genomics of Drug Sensitity in Cancer screening data, Wellcome Trust Sanger Institute”
pIC50: −log10 of the molar value.

Assays:
Test in all cases: cells
[1] = tested on: MZ2-MEL; assay type: functional, cell-based, Homo sapiens; settings: Homo sapiens, MZ2-MEL;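 also: growth inhibition of MZ2-MEL cells read out with a cell viability assay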
Description: SANGER: Inhibition of human MZ2-MEL cell growth in a cell viability assay.

[2] = tested on: NB12; assay type: functional, cell-based, Homo sapiens; settings: Homo sapiens, NB12;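 also: growth inhibition of human NB12 cells, read out by a cell viability assay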
Description: SANGER: Inhibition of human NB12 cell growth in a cell viability assay.

[3] = tested on: LB831-BLC; assay type: functional, cell-based, Homo sapiens; settings: Homo sapiens, LB831-BLC;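 also: growth inhibition of LB831-BLC cells, read out with a cell viability assay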
Description: SANGER: Inhibition of human LB831-BLC cell growth in a cell viability assay.

[4] = tested on: SCH; assay type: functional, cell-based, Homo sapiens; settings: Homo sapiens, SCH;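 also: growth inhibition of human SCH cells, read out in a cell viability assay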
Description: SANGER: Inhibition of human SCH cell growth in a cell viability assay.

[5] = tested on: MFM-223; assay type: functional, cell-based, Homo sapiens; settings: Homo sapiens, MFM-223
Description: SANGER: Inhibition of human MFM-223 cell growth in a cell viability assay.

[6] = tested on: RPMI-8226; assay type: functional, cell-based, Homo sapiens; settings: Homo sapiens, RPMI-8226
Description: SANGER: Inhibition of human RPMI-8226 cell growth in a cell viability assay.

[7] = tested on: HCC2218; assay type: functional, cell-based, Homo sapiens; settings: Homo sapiens, HCC2218;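 also: cell viability assay read-out, with IC50 given as the concentration that inhibits growth of the cell line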
Description: SANGER: Inhibition of human HCC2218 cell growth in a cell viability assay.

[8] = tested on: J-RT3-T3-5; assay type: functional, cell-based, Homo sapiens; settings: Homo sapiens, J-RT3-T3-5;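 also: cell viability assay measuring growth inhibition of human J-RT3-T3-5 cells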
Description: SANGER: Inhibition of human J-RT3-T3-5 cell growth in a cell viability assay.

[9] = tested on: SK-MEL-2; assay type: functional, cell-based, Homo sapiens; settings: Homo sapiens, SK-MEL-2;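 also: growth inhibition of human SK-MEL-2 cells measured with a cell viability assay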
Description: SANGER: Inhibition of human SK-MEL-2 cell growth in a cell viability assay.

[10] = tested on: HAL-01; assay type: functional, cell-based, Homo sapiens; settings: Homo sapiens, HAL-01;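 also: growth inhibition of human HAL-01 cells, read out with a cell viability assay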
Description: SANGER: Inhibition of human HAL-01 cell growth in a cell viability assay.

[11] = tested on: MFH-ino; assay type: functional, cell-based, Homo sapiens; settings: Homo sapiens, MFH-ino;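 also: growth inhibition of human MFH-ino cells, read out by a cell viability assay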
Description: SANGER: Inhibition of human MFH-ino cell growth in a cell viability assay.

[12] = tested on: SHP77; assay type: functional, cell-based, Homo sapiens, SHP-77; settings: Homo sapiens, SHP77;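 also: growth inhibition of human SHP-77 cells measured by a cell viability assay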
Description: SANGER: Inhibition of human SHP-77 cell growth in a cell viability assay.

[13] = tested on: L-428; assay type: functional, cell-based, Homo sapiens; settings: Homo sapiens, L-428
Description: SANGER: Inhibition of human L-428 cell growth in a cell viability assay.

[14] = tested on: AM-38; assay type: functional, cell-based, Homo sapiens; settings: Homo sapiens, AM-38;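 also: growth inhibition of AM-38 cells of human origin, read out by a cell viability assay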
Description: SANGER: Inhibition of human AM-38 cell growth in a cell viability assay.

[15] = tested on: SH-4; assay type: functional, cell-based, Homo sapiens; settings: Homo sapiens, SH-4;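 also: growth inhibition of SH-4 cells, read out with a cell viability assay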
Description: SANGER: Inhibition of human SH-4 cell growth in a cell viability assay.

[16] = tested on: ONS-76; assay type: functional, cell-based, Homo sapiens; settings: Homo sapiens, ONS-76;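 also: growth inhibition of human ONS-76 cells, read out with a cell viability assay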
Description: SANGER: Inhibition of human ONS-76 cell growth in a cell viability assay.

[17] = tested on: HCC1187; assay type: functional, cell-based, Homo sapiens; settings: Homo sapiens, HCC1187;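 also: growth inhibition of HCC1187 cells, read out with a cell viability assay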
Description: SANGER: Inhibition of human HCC1187 cell growth in a cell viability assay.

[18] = tested on: KM-H2; assay type: functional, cell-based, Homo sapiens; settings: Homo sapiens, KM-H2;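 also: growth inhibition of KM-H2 cells, read out by a cell viability assay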
Description: SANGER: Inhibition of human KM-H2 cell growth in a cell viability assay.

[19] = tested on: HCC2157; assay type: functional, cell-based, Homo sapiens; settings: Homo sapiens, HCC2157;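 also: growth inhibition of the cancer cell line, read out as cell viability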
Description: SANGER: Inhibition of human HCC2157 cell growth in a cell viability assay.

[20] = tested on: SW 962; assay type: functional, cell-based, Homo sapiens; settings: Homo sapiens, SW 962;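 also: growth inhibition of human SW962 cells, read out by a cell viability assay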
Description: SANGER: Inhibition of human SW962 cell growth in a cell viability assay.

[21] = tested on: GR-ST; assay type: functional, cell-based, Homo sapiens; settings: Homo sapiens, GR-ST
Description: SANGER: Inhibition of human GR-ST cell growth in a cell viability assay.

[22] = tested on: HC-1; assay type: functional, cell-based, Homo sapiens; settings: Homo sapiens, HC-1;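 also: growth inhibition of HC-1 cells measured by a cell viability assay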
Description: SANGER: Inhibition of human HC-1 cell growth in a cell viability assay.

[23] = tested on: HCC 2998; assay type: functional, cell-based, Homo sapiens; settings: Homo sapiens, HCC 2998;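 also: growth inhibition of human HCC2998 cells, measured with a cell viability read-out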
Description: SANGER: Inhibition of human HCC2998 cell growth in a cell viability assay.

[24] = tested on: TE-9; assay type: functional, cell-based, Homo sapiens; settings: Homo sapiens, TE-9;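 also: cell growth inhibition, measured with a cell viability readout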
Description: SANGER: Inhibition of human TE-9 cell growth in a cell viability assay.

[25] = tested on: BB49-HNC; assay type: functional, cell-based, Homo sapiens; settings: Homo sapiens, BB49-HNC;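 also: cell viability assay read-out, reported as inhibition of BB49-HNC cell growth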
Description: SANGER: Inhibition of human BB49-HNC cell growth in a cell viability assay.

[26] = tested on: NCI-H2126; assay type: functional, cell-based, Homo sapiens; settings: Homo sapiens, NCI-H2126;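 also: growth inhibition of the cancer cell line, determined with a cell viability readout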
Description: SANGER: Inhibition of human NCI-H2126 cell growth in a cell viability assay.

[27] = tested on: COLO-824; assay type: functional, cell-based, Homo sapiens; settings: Homo sapiens, COLO-824
Description: SANGER: Inhibition of human COLO-824 cell growth in a cell viability assay.

[28] = tested on: COR-L88; assay type: functional, cell-based, Homo sapiens; settings: Homo sapiens, COR-L88;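 also: growth inhibition of COR-L88 cells, read out with a cell viability assay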
Description: SANGER: Inhibition of human COR-L88 cell growth in a cell viability assay.

[29] = tested on: DJM-1; assay type: functional, cell-based, Homo sapiens; settings: Homo sapiens, DJM-1;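 also: growth inhibition of human DJM-1 cells, read out by a cell viability assay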
Description: SANGER: Inhibition of human DJM-1 cell growth in a cell viability assay.

[30] = tested on: A4-Fuk; assay type: functional, cell-based, Homo sapiens; settings: Homo sapiens, A4-Fuk;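 also: growth inhibition of A4-Fuk cells, read out by a cell viability assay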
Description: SANGER: Inhibition of human A4-Fuk cell growth in a cell viability assay.

[31] = tested on: SBC-1; assay type: functional, cell-based, Homo sapiens; settings: Homo sapiens, SBC-1;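 also: cell viability assay measuring growth inhibition of the SBC-1 cell line, IC50 being the concentration that halves growth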
Description: SANGER: Inhibition of human SBC-1 cell growth in a cell viability assay.

[32] = tested on: HT; assay type: functional, cell-based, Homo sapiens; settings: Homo sapiens, HT
Description: SANGER: Inhibition of human HT cell growth in a cell viability assay.

[33] = tested on: NCI-H1299; assay type: functional, cell-based, Homo sapiens; settings: Homo sapiens, NCI-H1299;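 also: growth inhibition of human NCI-H1299 cells, read out by a cell viability assay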
Description: SANGER: Inhibition of human NCI-H1299 cell growth in a cell viability assay.

[34] = tested on: A3-KAW; assay type: functional, cell-based, Homo sapiens; settings: Homo sapiens, A3-KAW;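 also: growth inhibition of human A3-KAW cells, read out with a cell viability assay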
Description: SANGER: Inhibition of human A3-KAW cell growth in a cell viability assay.

[35] = tested on: UACC-257; assay type: functional, cell-based, Homo sapiens; settings: Homo sapiens, UACC-257
Description: SANGER: Inhibition of human UACC-257 cell growth in a cell viability assay.

[36] = tested on: NCI-H1770; assay type: functional, cell-based, Homo sapiens; settings: Homo sapiens, NCI-H1770;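 also: growth inhibition of NCI-H1770 cells determined with a viability readout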
Description: SANGER: Inhibition of human NCI-H1770 cell growth in a cell viability assay.

[37] = tested on: LOX IMVI; assay type: functional, cell-based, Homo sapiens; settings: Homo sapiens, LOX IMVI
Description: SANGER: Inhibition of human LOXIMVI cell growth in a cell viability assay.

[38] = tested on: DMS-114; assay type: functional, cell-based, Homo sapiens; settings: Homo sapiens, DMS-114
[39] = tested on: NCI-H1838; assay type: functional, cell-based, Homo sapiens; settings: Homo sapiens, NCI-H1838;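 also: growth inhibition of NCI-H1838 cells, determined with a cell viability readout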
Description: SANGER: Inhibition of human NCI-H1838 cell growth in a cell viability assay.

[40] = tested on: LS-411N; assay type: functional, cell-based, Homo sapiens; settings: Homo sapiens, LS-411N
[41] = tested on: Mo; assay type: functional, cell-based, Homo sapiens; settings: Homo sapiens, Mo
Description: SANGER: Inhibition of human Mo-T cell growth in a cell viability assay.

[42] = tested on: NCI-N87; assay type: functional, cell-based, Homo sapiens; settings: Homo sapiens, NCI-N87;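 also: growth inhibition of human NCI-N87 cells, read out with a cell viability assay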
Description: SANGER: Inhibition of human NCI-N87 cell growth in a cell viability assay.

[43] = tested on: ES4; assay type: functional, cell-based, Homo sapiens; settings: Homo sapiens, ES4;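 also: growth inhibition of human ES4 cells, read out by a cell viability assay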
Description: SANGER: Inhibition of human ES4 cell growth in a cell viability assay.

[44] = tested on: SJSA-1; assay type: functional, cell-based, Homo sapiens; settings: Homo sapiens, SJSA-1;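 also: growth inhibition of human SJSA-1 cells, read out through a cell viability measurement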
Description: SANGER: Inhibition of human SJSA-1 cell growth in a cell viability assay.

[45] = tested on: A101D; assay type: functional, cell-based, Homo sapiens; settings: Homo sapiens, A101D;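 also: growth inhibition of the cell line, measured with a viability assay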
Description: SANGER: Inhibition of human A101D cell growth in a cell viability assay.

[46] = tested on: SNU1; assay type: functional, cell-based, Homo sapiens; settings: Homo sapiens, SNU1;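 also: growth inhibition of human NCI-SNU-1 cells, measured with a cell viability assay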
Description: SANGER: Inhibition of human NCI-SNU-1 cell growth in a cell viability assay.

[47] = tested on: SK-UT-1; assay type: functional, cell-based, Homo sapiens; settings: Homo sapiens, SK-UT-1;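 also: growth inhibition of SK-UT-1 cells, measured by a cell viability assay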
Description: SANGER: Inhibition of human SK-UT-1 cell growth in a cell viability assay.

[48] = tested on: ACN; assay type: functional, cell-based, Homo sapiens; settings: Homo sapiens, ACN;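 also: growth inhibition of the human ACN cell line, read out via cell viability testing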
Description: SANGER: Inhibition of human ACN cell growth in a cell viability assay.

[49] = tested on: KLE; assay type: functional, cell-based, Homo sapiens; settings: Homo sapiens, KLE;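 also: growth inhibition of human KLE cells, read out with a cell viability assay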
Description: SANGER: Inhibition of human KLE cell growth in a cell viability assay.

## Nc1ccn([C@@H]2O[C@H](CO)[C@@H](O)C2(F)F)c(=O)n1 [GEMCITABINE]
[1]
  pIC50: 7.58
[2]
  pIC50: 6.81
[3]
  pIC50: 7.38
[4]
  pIC50: < 5.99
[5]
  pIC50: < 5.99
[6]
  pIC50: 7.80
[7]
  pIC50: < 5.99
[8]
  pIC50: 7.17
[9]
  pIC50: < 5.99
[10]
  pIC50: 8.09
[11]
  pIC50: 8.78
[12]
  pIC50: < 5.99
[13]
  pIC50: 7.63
[14]
  pIC50: > 8.40
[15]
  pIC50: 8.04
[16]
  pIC50: 8.06
[17]
  pIC50: < 5.99
[18]
  pIC50: 6.58
[19]
  pIC50: < 5.99
[20]
  pIC50: 7.28
[21]
  pIC50: > 8.40
[22]
  pIC50: > 8.40
[23]
  pIC50: 8.20
[24]
  pIC50: 6.72
[25]
  pIC50: < 5.99
[26]
  pIC50: < 5.99
[27]
  pIC50: < 5.99
[28]
  pIC50: < 5.99
[29]
  pIC50: 7.67
[30]
  pIC50: > 8.40
[31]
  pIC50: 6.78
[32]
  pIC50: < 5.99
[33]
  pIC50: > 8.40
[34]
  pIC50: > 8.40
[35]
  pIC50: 6.44
[36]
  pIC50: 7.26
[37]
  pIC50: 8.80
[38]
  pIC50: < 5.99
[39]
  pIC50: < 5.99
[40]
  pIC50: 7.52
[41]
  pIC50: < 5.99
[42]
  pIC50: 6.48
[43]
  pIC50: > 8.40
[44]
  pIC50: 6.71
[45]
  pIC50: 8.03
[46]
  pIC50: > 8.40
[47]
  pIC50: > 8.40
[48]
  pIC50: > 8.40
[49]
  pIC50: 6.34

## O=C(O)c1ccc(-c2c[nH]c3ncc(-c4ccccc4)cc23)cc1C1CCCC1 [GSK-650394]
[1]
  pIC50: 5.18
[2]
  pIC50: < 4.80
[3]
  pIC50: < 4.80
[4]
  pIC50: < 4.80
[5]
  pIC50: < 4.80
[6]
  pIC50: < 4.80
[7]
  pIC50: < 4.80
[8]
  pIC50: < 4.80
[9]
  pIC50: < 4.80
[10]
  pIC50: < 4.80
[11]
  pIC50: 5.70
[12]
  pIC50: < 4.80
[13]
  pIC50: < 4.80
[14]
  pIC50: < 4.80
[15]
  pIC50: < 4.80
[16]
  pIC50: 5.38
[17]
  pIC50: < 4.80
[18]
  pIC50: < 4.80
[19]
  pIC50: 4.87
[20]
  pIC50: < 4.80
[21]
  pIC50: < 4.80
[22]
  pIC50: < 4.80
[23]
  pIC50: < 4.80
[24]
  pIC50: < 4.80
[25]
  pIC50: < 4.80
[26]
  pIC50: < 4.80
[27]
  pIC50: < 4.80
[28]
  pIC50: < 4.80
[29]
  pIC50: < 4.80
[30]
  pIC50: 4.83
[31]
  pIC50: < 4.80
[32]
  pIC50: < 4.80
[33]
  pIC50: 5.22
[34]
  pIC50: < 4.80
[35]
  pIC50: < 4.80
[36]
  pIC50: 5.00
[37]
  pIC50: < 4.80
[38]
  pIC50: < 4.80
[39]
  pIC50: < 4.80
[40]
  pIC50: 4.98
[41]
  pIC50: < 4.80
[42]
  pIC50: < 4.80
[43]
  pIC50: 5.39
[44]
  pIC50: 4.82
[45]
  pIC50: 5.03
[46]
  pIC50: < 4.80
[47]
  pIC50: 4.93
[48]
  pIC50: < 4.80
[49]
  pIC50: < 4.80
